Source: publication PMC3438169 (PLoS ONE, 2012)
*1 amine or outer side, *2 acyl side, *3 side chain or, on linkers, in order; H or OH if unused. Where a SMILES comes first, the peptide text is derived from it. [ ]: non-standard residue; d: D form. dAla(ψthiazole) = C[C@@H](N[*:1])c1nc(C(=O)[*:2])cs1; Trp(4-OMe) = COc1cccc2[nH]cc(C[C@H](N)C(=O)O)c12; dAbu = CC[C@@H](N)C(=O)O; Dha = C=C(N)C(=O)O; Sar = CNCC(=O)O

What was measured:
yeast (BY4741, BYΔ8) = test: Yeast susceptibility determination, wild-type and BYΔ8; type: cell-based, S. cerevisiae; conditions: for Activity against yeast (in words): rich medium with glucose
Method: Yeast strains used in this study are BY4741 [32] and strain BYΔ8, derived from BY4741 but deleted for eight genes involved in drug resistance (efflux pumps: snq2, pdr5, yor1; transcription factors: pdr1, pdr2, pdr3, yap1, yrm1). […] Starting OD600 was 0.1, total volume per well 120 µl. Plates were incubated at 30°C with 770 RPM orbital shaking.

[1] = test system: efflux-defective yeast strain (BYΔ8); test: Yeast colony formation on ethanol/glycerol medium; type: cell-based, S. cerevisiae; conditions: 0.1 µM argyrin B
Method: Strain BYΔ8 was incubated in 2.5% ethylmethanesulfonate until only 50% of the cells formed colonies. […] Amplifying the mutated MEF1 gene and transforming it into non-mutagenized BYΔ8 cells validated identified mutations in MEF1.

## C=C1NC(=O)CN(C)C(=O)CNC(=O)[C@H](Cc2c[nH]c3cccc(OC)c23)NC(=O)[C@H](Cc2c[nH]c3ccccc23)NC(=O)c2csc(n2)[C@@H](C)NC(=O)[C@@H](CC)NC1=O [argyrin B] (cyclo([dAbu][dAla(ψthiazole)]W[Trp(4-OMe)]G[Sar][Dha]))
Yeast (BY4741, BYΔ8); BYΔ8 (strain CMB970, eight genes involved in efflux deleted)
  Activity against yeast (in words): inactive
Yeast (BY4741, BYΔ8); glucose-grown yeast
  Inhibitory activity on glucose-grown yeast (in words): lack of inhibitory activity
Yeast (BY4741, BYΔ8); wild-type yeast (BY4741)
  Activity against yeast (in words): inactive
[1]
  Colony formation (in words): abolished colony formation
